Results published in PubChem BioAssay AID652109 (The Scripps Research Institute Molecular Screening Center, 2013).
Active and inactive are the calls of the source. The rule behind the calls is not given here.

Target: Serine/threonine-protein phosphatase PP1-alpha catalytic subunit (Homo sapiens) (UniProt P62136)
Assay: inhibition of PP1alpha catalytic activity – biochemical, OMFP substrate, fluorescence, late-stage follow-up (AID 652109)
Conditions: PP1 dephosphorylation of OMFP, at 6.7 µM, hits give high values

Serine/threonine-protein phosphatase PP1-alpha catalytic subunit (Homo sapiens), sequence (P62136 whole entry, looked up): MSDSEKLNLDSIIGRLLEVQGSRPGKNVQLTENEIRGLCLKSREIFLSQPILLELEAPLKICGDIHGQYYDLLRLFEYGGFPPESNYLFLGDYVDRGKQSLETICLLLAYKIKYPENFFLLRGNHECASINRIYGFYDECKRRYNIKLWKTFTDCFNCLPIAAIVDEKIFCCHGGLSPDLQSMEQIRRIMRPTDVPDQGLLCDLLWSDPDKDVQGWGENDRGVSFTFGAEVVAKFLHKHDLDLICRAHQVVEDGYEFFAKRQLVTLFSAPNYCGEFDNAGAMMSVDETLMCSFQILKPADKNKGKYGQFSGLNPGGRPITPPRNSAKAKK

| SMILES | inhibition |
| --- | --- |
| O=C1CCCC2=C1C1(O)C(=O)c3ccccc3C1(O)O2 (centres undefined) | 3.09% (inactive) |
| CCCCn1c(NC(=O)c2ccco2)c(C(=O)OCC)c2nc3ccccc3nc21 | -4% (inactive) |
| COc1cnc(-c2ccccn2)nc1Sc1ccc(Cl)cc1 | 53.2% |
| COc1ccc(Cl)cc1C(=O)Nc1cccc(-c2ccc3nncn3n2)c1 | 60.4% |
| CCOC(=O)c1cnc(-n2nc(C)cc2C)nc1NC(C)c1ccccc1 (centres undefined) | 68.8% |
| COc1ccccc1Sc1nc(-c2ccccn2)ncc1OC | 65.9% |
| O=S(=O)(Cc1cc(NCc2ccccc2)nc(-c2ccccn2)n1)c1ccccc1 | 44.6% |
| O=C(O)c1cc(-c2ccc(Cl)cc2)n(-c2cccc(Cl)c2)n1 | 57.5% |
| Cc1[nH]n(-c2ccccc2)c(=O)c1C(c1ccc([N+](=O)[O-])cc1)c1c(C)[nH]n(-c2ccccc2)c1=O | -0.696% (inactive) |
| COc1cnc(-c2ccccn2)nc1Sc1cccc(Cl)c1 | 67.6% |
| Nc1cc2nsnc2cc1Br | -4.44% (inactive) |
| CCOC(=O)C1=C(C)OC2(O)c3ccccc3C(=O)C12O (centres undefined) | 18.6% (inactive) |
| COc1ccc(Cn2c(N)c(C(=O)NCc3ccco3)c3nc4ccccc4nc32)cc1OC | 3.29% (inactive) |
| O=C(Nc1nc(-c2ccccn2)cs1)C1CC(=O)N(c2ccc3c(c2)OCCO3)C1 (centres undefined) | 49.4% |
| COc1ccc(C(=O)c2nccc3cc(OC)c(OC)cc23)cc1OC | 0.984% (inactive) |
| CCOC(=O)c1cnc(-n2nc(C)cc2C)nc1NC1CCCCC1 | 57.6% |
| O=C(O)C1C2CCC(O2)C1C(=O)NC1CCCCC1 (centres undefined) | 25% (inactive) |
| CCOC(=O)c1nn(-c2ccc(C)cc2)c(=O)c2c(N)scc12 | 6.08% (inactive) |
| Oc1cccc(/C=N/Nc2cc(N3CCCC3)nc(N3CCCC3)n2)c1 | 23.5% (inactive) |
| COc1cnc(-c2ccccn2)nc1Sc1ccccc1 | 60.7% |
| CCOC(=O)c1sc2nc3c(SCC(=O)O)cc(C(=O)c4cc(F)ccc4O)cn3c(=O)c2c1C | 67.8% |
| CCOC(=O)c1cnc(-n2nc(C)cc2C)nc1NCc1ccccc1 | 58.3% |

| SMILES | inhibition |
| --- | --- |
| O=C(NC1(O)C(=O)c2ccccc2C1=O)c1ccc(C(F)(F)F)cc1 | 6.8% (inactive) |
| CCOc1ccc(NC(=S)Nc2ccc3nsnc3c2)cc1 | 4.8% (inactive) |
| Cc1ccc(C(=O)NNc2cc(N3CCCC3)nc(N3CCCC3)n2)cc1 | 3.05% (inactive) |
| COc1cnc(-c2ccccn2)nc1Sc1ccccc1Cl | 68.5% |
| O=C(O)c1cc(-c2ccc(Cl)c(Cl)c2)n(-c2ccccc2)n1 | 60.5% |
| O=C(NC1(O)C(=O)c2ccccc2C1=O)c1c(Cl)cccc1Cl | 0.361% (inactive) |
| CC(C)(CS(=O)(=O)[O-])NC(=O)CC[N+](C)(C)CCO | 49.4% |
| COc1ccc(NC(=S)Nc2ccc3nsnc3c2)cc1 | 2.7% (inactive) |
| COc1ccc(NC(=O)C2C3CCC(O3)C2C(=O)O)c(OC)c1 (centres undefined) | 34.9% |
| Cc1cc(C)c(S(=O)(=O)/N=C2\C=C(Sc3ncn[nH]3)C(=O)c3ccccc32)cc1C | 5.9% (inactive) |
| COc1cnc(-c2ccccn2)nc1Sc1ccc(F)cc1 | 52.5% |
| COc1ccc2c(Cl)c(C(=O)N/N=C/c3ccc4c(c3)OCO4)sc2c1 | 23% (inactive) |
| COc1ccc(OCCCC(=O)Nc2nc(-c3ccccn3)cs2)cc1 | 33.3% |
| CC(=O)C(C(C)=O)C1(O)C(=O)c2ccccc2C1=O | 0.756% (inactive) |
| CCn1c2ccccc2c2cc(NC(=O)COC(=O)c3ccc(NC(=O)CC#N)cc3)ccc21 | 47.2% |
| Oc1ccc(/C=N/Nc2cc(N3CCOCC3)nc(N3CCOCC3)n2)c(O)c1 | 5.24% (inactive) |
| COc1ccc(CN2C(=O)Cc3c2nc(N)c2c(N)nc(N4CCCCC4)c(C#N)c32)cc1 | 6.16% (inactive) |
| N#Cc1c(-c2ccc(Cl)cc2)cc(-c2cccs2)nc1SCC(=O)O | 46.6% |
| CCOC(=O)c1sc(N2C(=O)C(O)=C(C(=O)c3ccco3)C2c2cccc([N+](=O)[O-])c2)nc1C (centres undefined) | 32.7% |
| O=C(NC1(O)C(=O)c2ccccc2C1=O)c1ccccc1 | -2.88% (inactive) |
| c1ccc(Nc2nc(-c3ccccn3)cs2)cc1 | 63.7% |
| CCOC(=O)c1cnc(-n2nc(C)cc2C)nc1NCCc1ccccc1 | 65.2% |

| SMILES | inhibition |
| --- | --- |
| CN1CCN(C(c2ccccn2)c2cc(Cl)c3cccnc3c2O)CC1 (centres undefined) | 74% |
| O=C1Nc2ccccc2N2CCCC12 (centres undefined) | -0.206% (inactive) |
| Cc1ccc(-n2nc(C(=O)O)cc2-c2ccc(Cl)cc2)cc1 | 56% |
| COc1cnc(-c2ccccn2)nc1Oc1cccc(Cl)c1 | 49.5% |
| N#Cc1c(N2CCCC(O)C2)nc(N)c2c(N)nc3c(c12)CC(=O)N3C12CC3CC(CC(C3)C1)C2 (centres undefined) | 8.91% (inactive) |
| CCCCN(CC)c1nc(N)c2c(N)nc(OCC)cc2c1C#N | 3.48% (inactive) |
| COc1cnc(-c2ccccn2)nc1Sc1ccc(C)cc1 | 65.8% |
| CCCN(CC1CC1)c1nc(N)c2c(N)nc(OC)cc2c1C#N | 3.83% (inactive) |
| Nc1nc(-c2ccccn2)nc(N)c1Cc1ccc(Cl)cc1Cl | 65.9% |
| Cc1nnc(NC(=O)C2C3C=CC(O3)C2C(=O)O)s1 (centres undefined) | 8.42% (inactive) |
| COc1cc(Br)c(C(=O)c2nccc3cc(OC)c(OC)cc23)cc1OC | -4.95% (inactive) |
| CCOC(=O)c1cnc(-n2cc(C)cn2)nc1NCc1ccc2c(c1)OCO2 | 12.9% (inactive) |
| O=c1[nH]c(Nc2ccccc2)cc2ccccc12 | 9.24% (inactive) |
| COc1cnc(-c2ccccn2)nc1Oc1cccc(C(F)(F)F)c1 | -4.5% (inactive) |
| Oc1ccccc1/C=N/Nc1cc(N2CCCC2)nc(N2CCCC2)n1 | 4.78% (inactive) |
| COc1ccc(Sc2nc(-c3ccccn3)ncc2OC)cc1 | 71.2% |
| c1ccc(-c2nccc(-c3ccc(-n4cnc5ccccc54)cc3)n2)nc1 | 62.4% |
| Clc1ccc(-n2nnnc2-c2cnc(-c3ccccn3)nc2-c2cccs2)cc1 | 67.4% |
| O=C(O)c1cc(-c2ccc(Cl)c(Cl)c2)n(-c2ccc(F)cc2)n1 | 57.1% |
| Cc1ccc(C(=O)NC2(O)C(=O)c3ccccc3C2=O)cc1C | -0.875% (inactive) |
